In patent EP4684783A1, “COSMETIC COMPOSITION FOR PREVENTING, ALLEVIATING, OR AMELIORATING HAIR LOSS” (LG Chem, Ltd., priority 2023, dated 2025):
“And” between values parts separate entries of the source, which are not always exact repeats. Equal values may be shown once. Read-outs that look alike come from different tables or passages of the source.

How the values were obtained:
human hair follicles = assay: Ratio of hair follicle telogen in DHT-treated cultured hair follicles (visual evaluation); conditions: for Telogen ratio (%): 6 days
Method: (§1) The ratio of hair follicle telogen and the expression level of hair follicle cell proliferation-related factor proteins depending on whether 3-hydroxypropionic acid was applied or not were evaluated according to the following methods.
(§2) The human hair follicles or scalp tissues provided for research purposes (IRB No. 4-2023-1052; Institutional Review Board, Severance Medical Center, Yonsei University College of Medicine) were washed several times with PBS to remove residual impurities, and randomly divided into each group. The hair follicles and scalp tissues were cultured in Williams' Medium E (Sigma) supplemented with 2 mM L-glutamine (Sigma-Aldrich), 10 µg/ml insulin (Sigma-Aldrich), 100 ng/ml hydrocortisone (Sigma-Aldrich), 0.1% fungizone (Gibco, USA), and 1% antibioticantimycotic (Gibco), and 1% […] (Gibco) at 37°C in 5% CO2.
To induce the telogen in the anagen hair follicle tissue, the test composition was treated with 1 µM dihydrotestosterone (DHT). The medium was replaced every 3 days and cultured for 6 days. The ratio of hair follicle telogen was visually evaluated based on the ratio of hair follicles in which the telogen occurred for 6 days compared to day 0.

hair follicle cells = assay: Ki67 immunofluorescence staining of cultured scalp tissue (hair follicle cell proliferation); design: species or system human; conditions: for Ki67 positive cells (%): scalp tissue, 24 hours
Method: as §1, §2
After the scalp tissue was treated with the test composition for 24 hours, the obtained tissue was prepared into a frozen block, and frozen sectioned at a thickness of 5 µm using a Cryostat microtome (Leica Biosystems, Germany), and the tissue sections were attached onto Silane-coated slides. Then, in order to stain the tissue sections and photograph the cross sections, the OCT compound was removed, a primary antibody specifically binding to Ki67 (Anti-Ki67 antibody: ab15580; abcam) was attached, and a fluorescently labeled secondary antibody specifically binding to this primary antibody (Goat pAb to Rb IgG (H+L): a11012; Invitrogen) was attached. Finally, the tissues were fixed with a fixative containing blue fluorescent DAPI (VECTASHIELD® mounting medium with DAPI; Vector laboratories) that stains the cell nucleus, and then images were taken at 100x magnification using a fluorescence microscope (M2; Zeiss). The percentage of Ki67-expressing cells among the total cells labeled with DAPI was measured from the captured images, and a higher value means a higher number of Ki67-expressing cells.

[1] = Cell viability (WST / CCK-8 absorbance at 450 nm); format: cell-based, Human; conditions: human, follicle dermal papilla cells, 24 hours
Method: (§3) Human follicle dermal papilla cells (PromoCell GmbH) were cultured in human follicle dermal papilla cells growth medium(PromoCell GmbH) supplemented with fetal calf serum(FCS), bovine pituitary extract(BPE), basic fibroblast growth factor(bFGF), and insulin at 37°C and 5% CO2.
(§4) […] WST substrate solution (high sensitivity water soluble tetrazolium salt, CCK-8, DOJINDO) was then added to the medium, and cultured at 37°C for 2 hours.
(§5) During the culture, a […] formazan was produced by the reaction between WST and intracellular dehydrogenase, and the absorbance (OD, wavelength 450 nm) was measured. The cell viability was calculated according to the following Equation 1 below, and the results are shown in Table 1 below. [formula]
(§6) In Equation 1, the 'experimental group' is the group treated with an aqueous solution containing 3HP; the 'control group' is the medium containing only the WST substrate; and the 'negative control group' is the group in which a medium containing WST substrate was treated with an aqueous solution of 0% 3HP.

[2] = test system: Human follicle dermal papilla cells; assay: Cell viability (WST / CCK-8 absorbance at 450 nm); format: cell-based; conditions: for Human follicle dermal papilla cell viability (%): 24 hours, single runs (Once / Two times / Three times), 1440 min
Method: as §3, §4, §5, §6

Srd5α1 = assay: 5α-reductase gene expression by real-time PCR (relative quantification vs GAPDH); format: cell-based, Human; conditions: for mrna remaining at 0.0125 %: 3HP 0.0125 %; for mrna remaining at 0.025 %: 3HP 0.025 %
Method: as §3
(§7) The cultured human follicle dermal papilla cells were divided into 5x10^4 cells in a 96-well plate, and when the cells reached 80% or more confluency, they were treated with the 3-hydroxypropionic acid aqueous solution according to Preparation Example 1 at four concentrations (3HP concentrations: 0 wt.%, 0.0125 wt.%, 0.025 wt.%, and 0.05 wt.%), and then cultured for 24 hours. Then, the total RNA in the cells was extracted, and cDNA was synthesized from the extracted RNA. The synthesized cDNA was subjected to real-time polymerase chain reaction. And, the relative quantitative analysis of each gene was performed using GAPDH (one of the house-keeping genes). The relative quantification (RQ) value was calculated according to the following Equation 2. RQ = 2−ΔΔCT; ΔΔCT = ΔCT (Treatment)−ΔCT (Control); ΔCT = CT (Targetgene)−CT (House-keepinggene) [formula]
(§8) In the Equation 2, 'Treatment' is the group treated with 3HP; 'Control' is the group not treated with 3HP; 'Target gene' is Srd5α1 and TGF-β1, and 'House-keeping gene' is GAPDH.

TGF-β1 = TGF-β1 gene expression by real-time PCR (relative quantification vs GAPDH); format: cell-based, Human; conditions: for mrna remaining at 0.0125 %: 3HP 0.0125 %; for mrna remaining at 0.025 %: 3HP 0.025 %
Method: as §3, §7, §8

[3] = Homo sapiens, 24 h, 24 hours, human follicle dermal papilla cells, Average, read-out: 5α-reductase gene expression level (RQ)
[4] = Homo sapiens, 24 h, 24 hours, human follicle dermal papilla cells, single runs (Once / Two times / Three times), read-out: 5α-reductase gene expression level (RQ)
[5] = Homo sapiens, 24 h, 24 hours, human follicle dermal papilla cells, Average, read-out: TGF-β1 gene expression level (RQ)
[6] = Homo sapiens, 24 h, 24 hours, human follicle dermal papilla cells, single runs (Once / Two times / Three times), read-out: TGF-β1 gene expression level (RQ)

With `O=C(O)CCCC[C@@H]1SC[C@@H]2NC(=O)N[C@@H]21` [Biotin, reference compound] the “Telogen ratio (%)” value (human hair follicles; DHT + 2 ng/ml Biotin) was 10.000% and the “Ki67 positive cells (%)” value (hair follicle cells; 2 ng/ml Biotin) was 44.631%.
In the case of `C[C@]12CCC(=O)C[C@@H]1CC[C@@H]1[C@@H]2CC[C@]2(C)[C@@H](O)CC[C@@H]12` [DHT, dihydrotestosterone, reference compound], the “Telogen ratio (%)” value (human hair follicles; 1 µM DHT alone (DHT control group)) is reported as 40.000%.
Work on `O=C(O)CCO` [Example 3HP, 3-hydroxypropionic acid] yielded a viability at 24 h ([1]; 3HP 0.0125 %, Average) of 92.6%, a viability at 24 h ([1]; 3HP 0.0125 %, single runs (Once / Two times / Three times)) of 90.8% and a viability at 24 h ([1]; 3HP 0.025 %, Average) of 86.7%. For the same compound, the viability at 24 h ([1]; 3HP 0.025 %, single runs (Once / Two times / Three times)) was 86.6%, the viability at 24 h ([1]; 3HP 0.05 %, Average) was 85.8% and the viability at 24 h ([1]; 3HP 0.05 %, single runs (Once / Two times / Three times)) was 86.5%. The viability at 24 h ([1]; 3HP 0.1%, Average) was 75.3%, the viability at 24 h ([1]; 3HP 0.1%, single runs (Once / Two times / Three times)) was 77.5% and the “Human follicle dermal papilla cell viability (%)” value ([2]; 3HP 0.0125 %) was 92.037% and 95.062%. The “Human follicle dermal papilla cell viability (%)” value ([2]; 3HP 0.025 %) was 84.153% and 89.275%, the “Human follicle dermal papilla cell viability (%)” value ([2]; 3HP 0.05 %) was 86.027% and 85.031% and the “Human follicle dermal papilla cell viability (%)” value ([2]; 3HP 0.1%) was 72.756% and 75.694%. The cell viability ([2]; under the treatment concentrations of Table 2, result in words) was “high”, the mrna remaining at 0.0125 % (Srd5α1; [3]) was 86.6% and the mrna remaining at 0.0125 % (Srd5α1; [4]) was 85.6%. For the same compound, the mrna remaining at 0.025 % (Srd5α1; [3]) was 88.8%, the mrna remaining at 0.025 % (Srd5α1; [4]) was 87.1% and the mrna remaining at 0.05 % (Srd5α1; Homo sapiens, 24 h, 3HP 0.05 %, 24 hours, human follicle dermal papilla cells, Average, read-out: 5α-reductase gene expression level (RQ)) was 127%. The “expression of the 5α-reductase gene” value (Srd5α1; under the treatment concentration of Table 3, result in words) was “significantly inhibited”, the mrna remaining at 0.0125 % (TGF-β1; [5]) was 80.2% and the mrna remaining at 0.0125 % (TGF-β1; [6]) was 75.6%. The mrna remaining at 0.025 % (TGF-β1; [5]) was 69.4%, the mrna remaining at 0.025 % (TGF-β1; [6]) was 70.4% and the mrna remaining at 0.05 % (TGF-β1; Homo sapiens, 24 h, 3HP 0.05 %, 24 hours, human follicle dermal papilla cells, Average, read-out: TGF-β1 gene expression level (RQ)) was 130%. For the same compound, the “expression of the TGF-β1 gene” value (TGF-β1; under the treatment concentration of Table 4, result in words) was “significantly inhibited”, the “hair follicle telogen ratio” value (human hair follicles; 0.1%, 0.5%, and 1.0% 3HP compared to the DHT control group, result in words) was “significantly decreased” and the “Telogen ratio (%)” value (human hair follicles; DHT + 0.1% 3HP) was 6.250%. For the same compound, the “Telogen ratio (%)” value (human hair follicles; DHT + 0.5% 3HP) was 0.000%, the “Telogen ratio (%)” value (human hair follicles; DHT + 1.0% 3HP) was 0.000% and the “proliferation effect of hair follicle cells” value (hair follicle cells; 0.1% 3HP compared to the negative control group, Ki67 immunofluorescence staining, result in words) was “significantly increased”. The “Ki67 positive cells (%)” value (hair follicle cells; 0.1% 3HP) was 48.745%.
For `CC(C)(C)NC(=O)[C@H]1CC[C@H]2[C@@H]3CC[C@H]4NC(=O)C=C[C@]4(C)[C@H]3CC[C@]12C` [Finasteride, reference compound], the “Telogen ratio (%)” value (human hair follicles; DHT + 0.5 mM Finasteride) was 0.000%.
In the case of `Nc1cc(N2CCCCC2)nc(N)[n+]1[O-]` [Minoxidil, reference compound], the “Ki67 positive cells (%)” value (hair follicle cells; 0.1 mM Minoxidil) is reported as 47.187%.
